Assay results reported in the METLIN SMRT retention time set (Domingo-Almenara et al. 2019).

Experiment: gradient 5% acetonitrile 3 min, to 50% in 2 min, to 85% in 15 min, held 3 min, 100 µL/min
Conditions: column: Zorbax Extend-C18 2.1 x 50 mm; eluents: water / acetonitrile, 0.1% formic acid
In short: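 Retention time was recorded from adduct peaks, which were picked computationally and each inspected manually. Pure standards ran in mixtures of ~100 molecules on HPLC coupled to a quadrupole time-of-flight mass spectrometer, in positive and negative ionization mode, through a Zorbax Extend-C18 column (2.1 × 50 mm, 1.8 μm) at 100 μL/min. Eluents were water and acetonitrile, each with 0.1% formic acid.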

| RP-LC retention time | Structure (SMILES) |
| --- | --- |
| 592 s | O=C(C1CCCN(c2ncnc3c2nc2n3CCCCC2)C1)N1CCN(c2ccccn2)CC1 (stereo not drawn) |
| 912 s | Cc1ccc(NS(=O)(=O)c2n[nH]c(C)c2C(=O)NCCc2cccs2)cc1 |
| 791 s | O=C(Nc1ccc(F)cc1)C1CCN(C(=O)c2ncn3c2COC(c2ccccc2)C3)CC1 (stereo not drawn) |
| 565 s | CCn1cc(S(=O)(=O)N2CC(N(C)Cc3cccnc3)C2)cn1 |
| 803 s | O=C(CN1C(=O)CCCc2cc(S(=O)(=O)N3CCCC3)ccc21)Nc1ccccc1 |
| 1080 s | CC1CC(=O)c2cnc(N3CCN(c4ccccc4)CC3)nc2C1 (stereo not drawn) |
| 1030 s | Cc1nc2cc(-c3noc(Cc4ccccc4Cl)n3)ccc2o1 |
| 719 s | CN1C(=O)c2ccccc2Oc2ccc(C(=O)N3CCCC3)cc21 |
| 864 s | CCn1c(=O)c(N2CCC(C(=O)NCCc3c[nH]c4ccc(OC)cc34)CC2)nc2cccnc21 |
| 991 s | C#C[C@]1(O)CCC2C3CCC4=CC(=O)CCC4C3C(=C)CC21CC (stereo partly drawn) |
| 764 s | COc1cc(NC(=O)c2sc(-c3cn(C)c4ncccc34)nc2C)cc(OC)c1 |
| 578 s | CN(C)CCn1cc(C(=O)NCc2cccs2)ccc1=O |
| 879 s | CCOc1ccccc1C(=O)NC1CCN(c2cc(-c3ccc(Cl)cc3)[nH]n2)C1 (stereo not drawn) |
| 793 s | O=C(Nc1ccc2c(c1)CCC2)C1CCc2nc(N3CCOCC3)ncc2C1 (stereo not drawn) |
| 844 s | CCCn1cc(S(=O)(=O)Nc2ccc(C#N)cc2)c2cccnc21 |
| 965 s | O=S(=O)(c1ccc(Br)cc1)N1CCSC1c1ccco1 (stereo not drawn) |
| 661 s | CCn1nc(C)c(CCNC(=O)c2ccc3c(c2)N(C)C(=O)C2CCCCN32)c1C (stereo not drawn) |
| 790 s | c1ccc(-n2ccnc2SCc2nc(-c3ccc4c(c3)OCO4)no2)cc1 |
| 986 s | CC(C)CNC(=O)N1CCN(c2nc3ccccc3n(Cc3ccccc3)c2=O)CC1 |
| 986 s | CSc1ccc(-c2nc3ccc(Br)cn3c2Nc2ccc(C)cc2)cc1 |
| 724 s | O=C(NCC1CCCO1)c1n[nH]c2c1CCCCCC2 (stereo not drawn) |
| 1340 s | CCCOc1ccc(-c2noc(Cc3nc(-c4ccccc4)cs3)n2)cc1 |

| RP-LC retention time | Structure (SMILES) |
| --- | --- |
| 718 s | CCc1cccc(NS(=O)(=O)c2cc(-c3[nH]ncc3C(=O)N(C)C)oc2C)c1 |
| 860 s | CC1(C(=O)NC2CCCCC2)CN(S(C)(=O)=O)CC(=O)N1c1ccc(Cl)cc1 (stereo not drawn) |
| 819 s | O=C(NCc1ccccc1F)C1CCN(C(=O)c2ncn3c2COC(c2ccc(Cl)cc2)C3)CC1 (stereo not drawn) |
| 993 s | Cc1ccc(NC(=O)N2CCCC(C)(C(=O)NCc3ccccc3)C2)c(Cl)c1 (stereo not drawn) |
| 837 s | Cn1cc(-c2cc3n(n2)CCCN3C(=O)CCC(=O)N2CCCCCC2)c2ccccc21 |
| 720 s | Cc1ccc(NC(=O)CN2C(=O)CCc3cc(S(=O)(=O)N4CCCCC4C)ccc32)cc1C (stereo not drawn) |
| 652 s | O=C(NCc1ccccc1Cl)C1CCCN(C(=O)NC2CC2)C1 (stereo not drawn) |
| 703 s | O=C(CC1CCN(C(=O)NCc2ccccc2)CC1)N1CCCCC1 |
| 715 s | CCCN1CCn2cc(S(=O)(=O)Nc3ccc(OC)cc3)cc2C1=O |
| 715 s | COc1ccc(CC(=O)N2CCc3c(c(CO)nn3CC3CC3)C2)cc1 |
| 768 s | Cc1ncoc1C(=O)N1CC(F)(F)C[C@H]1c1nc(C2CC2)no1 |
| 757 s | CC(N)C(=O)OC(C)(C)Cc1ccc(Cl)cc1 (stereo not drawn) |
| 852 s | COc1ccc(C)cc1NC(=O)C1CCCN(C(=O)C2Sc3ccccc3NC2=O)C1 (stereo not drawn) |
| 1050 s | CCOc1ccc(-c2noc(Cn3nc(-c4ccccc4F)ccc3=O)n2)cc1 |
| 770 s | COCCCn1cc(C(=O)N2CCc3ccccc3C2)c2nn(-c3ccccc3)c(=O)c-2c1 |
| 970 s | O=c1ccc(-c2ccccc2)nn1CCc1nc(-c2ccc(F)cc2)no1 |
| 983 s | Cc1ccc(-c2cn3c4c(=O)n(C)c(=O)n(C)c4nc3n2Cc2ccc(F)cc2)cc1 |
| 634 s | c1cc2c(cc1-c1noc(-c3ccc4c(c3)OCO4)n1)ncn2CCN1CCCC1 |
| 902 s | CCOc1ccc(CC(=O)N2CCCC2c2c(C)noc2C)cc1 (stereo not drawn) |
| 703 s | Cc1noc2nc(CCC(=O)NCCCN3CCc4ccccc4C3)nc(N3CCC(C)CC3)c12 |
| 593 s | CCCNC(=O)C1CCN(c2ccc(SCC(=O)Nc3ccc(S(C)(=O)=O)cc3)nn2)CC1 |
| 858 s | CC1(C(=O)NCc2ccc(Cl)cc2)CN(S(C)(=O)=O)CC(=O)N1Cc1ccccc1 (stereo not drawn) |

| RP-LC retention time | Structure (SMILES) |
| --- | --- |
| 669 s | CC1CCN(c2cc(-n3cnc(C(=O)N4CCC(C(N)=O)CC4)c3)ncn2)CC1 |
| 851 s | COc1ccc(C(=O)N2CCC3(CC2)N=C(c2ccc(Cl)cc2)NO3)cc1 |
| 1040 s | COC(=O)c1cnc(N2CCN(c3cccc(C)c3)C(C)C2)c2ccccc12 (stereo not drawn) |
| 865 s | CCCc1noc(-c2ccc(-n3ncc(C(=O)NC4CC4)c3C)nc2)n1 |
| 667 s | CCN(CC)CCNc1ccc(-c2nc(-c3ccc(F)cc3)no2)nn1 |
| 613 s | CCCNC(=O)N1CCC2(CC1)NCCc1c2[nH]c2ccccc12 |
| 614 s | CCC(=O)N1CCc2c(C(=O)NCCN3CCc4ccccc4C3)cccc21 |
| 857 s | CCOC(=O)c1nnc2c(-c3ccc(F)cc3)c(C)nn2c1N |
| 648 s | COc1cccc(N2CCN(C(=O)C3CCN(c4cncnc4N(C)C)CC3)CC2)c1 |
| 586 s | CC1CCCCN1CCCNC(=O)CCC(=O)N1CCc2c(c(C(=O)N3CCCC3)nn2C)C1 (stereo not drawn) |
| 916 s | COc1ccc(OCc2nc(-c3ccc4nnn(C)c4c3)no2)cc1 |
| 1100 s | c1ccc(-n2ncc3c(Nc4ccc5c(c4)OCO5)nc(N4CCOCC4)nc32)cc1 |
| 1100 s | CCc1ccc(S(=O)(=O)N2CCCN(C)c3ccccc32)cc1 |
| 647 s | O=C(NCCN1CCOCC1)c1nc2ccccn2c1-c1ccc(Cl)cc1 |
| 638 s | CCNC(=O)C1CCCN(c2nc3ncn(CC(=O)NCc4ccccc4)c(=O)c3s2)C1 (stereo not drawn) |
| 618 s | Cn1c(C(=O)NCC2CCCO2)cc2c1CCN(Cc1cccc(F)c1)C2 (stereo not drawn) |
| 604 s | COCCn1c(CC2CCN(C(=O)c3ccc(C)s3)C2)nc2cccnc21 (stereo not drawn) |
| 1230 s | CCOC(=O)c1cc(C2CC2)nc2c1c(=O)n(Cc1cccc(C)c1)c(=O)n2C |
| 749 s | Cc1ccsc1C(=O)N1CCN(c2cc(-c3ccc(Cl)cc3)[nH]n2)CC1 |
| 858 s | Cn1ncc2c(N3CCCC3)nc(C(=O)NCc3ccc(Cl)cc3)nc21 |
| 834 s | c1ccc(CN2CCC3(CCCc4ccccc43)CC2)cc1 |
| 1290 s | Cc1ccc(S(=O)(=O)N2CCCC2c2nc(-c3ccccc3C)no2)cc1Cl (stereo not drawn) |

| RP-LC retention time | Structure (SMILES) |
| --- | --- |
| 658 s | O=Cc1ccc(O)c2ncccc12 |
| 830 s | O=C(Nc1nnc(C2CC(=O)N(c3ccc(F)cc3)C2)o1)c1ccc(C(F)(F)F)cc1 (stereo not drawn) |
| 660 s | CCCn1c(C)cnc1C1CN(S(=O)(=O)c2ccccc2Cl)C1 |
| 582 s | Cc1ccc(Cn2cc(-c3ccncc3)cc2C(=O)N2CCN(CC(C)C)CC2)cc1 |
| 1060 s | CCOc1ccc(S(=O)(=O)N2CCC(C(=O)Nc3ccc(Br)cc3F)CC2)cc1 |
| 1050 s | Cc1ccccc1NC(=O)N1CCCC1c1nc(-c2cccc(Cl)c2)no1 (stereo not drawn) |
| 667 s | Cc1cc(NC(=O)c2ccccc2)nc(C)n1 |
| 775 s | COc1cccc(-n2ccn3cc(-c4ccc5c(c4)OCO5)nc3c2=O)c1 |
| 776 s | CCc1cccc(C)c1N(C(=O)Cn1c(CC)nc2ccccc21)C(C)COC (stereo not drawn) |
| 1130 s | Fc1cccc(Cc2noc(-c3nc(-c4ccccc4F)no3)n2)c1 |
| 670 s | COc1cc2c(Oc3ccc(NC(=O)C4(C(=O)Nc5ccc(F)cc5)CC4)cc3F)ccnc2cc1OCCCN1CCOCC1 |
| 553 s | COc1cc(S(=O)(=O)NC2CC(C)(C)NC(C)(C)C2)ccc1F |
| 597 s | C=CCc1cc(OC)ccc1OCC(O)CN1CCN(c2ccc(OC)cc2)CC1 (stereo not drawn) |
| 893 s | Cc1cc(C2CCCN2C(=O)Nc2cc(Cl)ccc2C)no1 (stereo not drawn) |
| 1050 s | Cc1cccc(C(=O)Nc2nc(-c3ccc4c(c3)N(C)C(=O)C(C)O4)cs2)c1 (stereo not drawn) |
| 793 s | Cc1ccc(CNC(=O)c2cccc(-c3nc4cccnc4n3C(C)C)c2)o1 |
| 1200 s | CCOc1cc(C(=O)N2CCCC2c2nc(-c3ccc(C)cc3)no2)cc(OCC)c1OCC (stereo not drawn) |
| 564 s | CCN(CC)CCCNC(=O)C1CCN(C(=O)c2oc3cc4sc(N(C)C)nc4cc3c2C)CC1 |
| 776 s | CSc1cccc(NC(=O)N2CCN(Cc3nc4ccc(C)cc4o3)CC2)c1 |
| 741 s | Cc1noc(C)c1CCNC(=O)C(C)n1c2ccccc2c2cnn(C)c(=O)c21 (stereo not drawn) |
| 971 s | COc1cc(NC(=O)CN2CC(C)Sc3ccccc32)cc(OC)c1 (stereo not drawn) |

| Structure (SMILES) | RP-LC retention time |
| --- | --- |
| CCC(=O)CCCCC[C@@H]1NC(=O)[C@H]2CCCCN2C(=O)[C@H]([C@H](C)CC)NC(=O)[C@H](Cc2cn(OC)c3ccccc23)NC1=O | 965 s |
